Data published in patent US11674136B2, “DNA-templated macrocycle library” (President and Fellows of Harvard College, priority 2018, dated 2023).
“Also recorded” adds a separate entry of the source.

Target: T1, Recombinant human N-His6-IDE42-1019 (Homo sapiens, UniProt P14735)
T1 construct: Recombinant human N-His6-IDE42-1019(R&D Systems); His6 (N); purchased R&D Systems
T1 sequence (P14735 42-1019): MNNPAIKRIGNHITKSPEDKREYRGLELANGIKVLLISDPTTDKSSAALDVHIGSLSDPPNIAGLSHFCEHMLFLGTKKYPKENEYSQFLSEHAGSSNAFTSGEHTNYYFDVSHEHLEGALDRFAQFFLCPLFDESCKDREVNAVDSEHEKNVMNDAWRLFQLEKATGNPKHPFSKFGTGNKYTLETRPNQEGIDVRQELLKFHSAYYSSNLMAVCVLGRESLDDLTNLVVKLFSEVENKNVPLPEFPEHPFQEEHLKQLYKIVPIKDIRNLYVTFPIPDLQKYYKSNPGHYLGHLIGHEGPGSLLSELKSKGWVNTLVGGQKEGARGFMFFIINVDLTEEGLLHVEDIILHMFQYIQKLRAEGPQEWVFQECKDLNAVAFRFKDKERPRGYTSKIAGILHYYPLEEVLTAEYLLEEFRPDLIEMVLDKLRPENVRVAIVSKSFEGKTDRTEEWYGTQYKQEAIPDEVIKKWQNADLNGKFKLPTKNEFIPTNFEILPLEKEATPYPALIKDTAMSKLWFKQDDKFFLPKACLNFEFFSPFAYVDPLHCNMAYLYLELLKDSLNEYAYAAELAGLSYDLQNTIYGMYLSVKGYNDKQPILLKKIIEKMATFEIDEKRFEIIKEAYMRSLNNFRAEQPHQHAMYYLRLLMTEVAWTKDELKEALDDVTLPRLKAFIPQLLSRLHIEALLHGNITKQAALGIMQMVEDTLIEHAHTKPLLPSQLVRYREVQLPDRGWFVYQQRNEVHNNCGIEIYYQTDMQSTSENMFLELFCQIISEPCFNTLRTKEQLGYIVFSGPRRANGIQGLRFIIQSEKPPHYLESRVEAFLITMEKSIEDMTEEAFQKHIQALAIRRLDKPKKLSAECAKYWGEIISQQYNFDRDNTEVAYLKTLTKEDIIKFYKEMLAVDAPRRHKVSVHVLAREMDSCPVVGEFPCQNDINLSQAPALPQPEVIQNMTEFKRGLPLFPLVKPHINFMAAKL
Assay: IDE inhibition assay with fluorogenic decapeptide substrate Mca-RPPGFSAFK(Dnp)-OH
Assay type: biochemical
Conditions: fluorogenic decapeptide cleavage assay; for IC50: DNA-free macrocycle; for IDE inhibition, potency in words: comparison with reference inhibitors
Method: Recombinant human N-His6-IDE42-1019(R&D Systems) was assayed using the fluorophore/quencher-tagged peptide substrate Mca-RPPGFSAFK(Dnp)-OH (R&D) according to the manufacturer's instructions and using the recommended buffer 50 mM Tris, pH 7.5, 1 M NaCl (fluorophore Mca=(7-methoxycourmarin-4-yl)acetyl and quencher Dnp=2,4-dinitrophenyl). The enzyme mixture (48 μL) was transferred to a 96-well plate and combined with 2 μL of inhibitor in DMSO solutions, as 3-fold dilution series. The mixtures were allowed to equilibrate for 5 minutes and the enzymatic reaction was started by addition of substrate peptide in assay buffer (50 μL), immediately mixed by orbital shaking, and monitored on a fluorescence plate reader (excitation at 320 nm, emission at 405 nm). […] Inhibitor 6bK was used as a positive control in each assay, and error bars correspond to the standard error.

Row | Compound | IC50 [nM] | IDE inhibition, potency in words
1 | NCCOCCNC(=O)C1CCNC(=O)C=CC(=O)NC(Cc2ccccc2C(F)(F)F)C(=O)NC(CC2CCCCC2)C(=O)NC(Cc2ccc(C(=O)c3ccccc3)cc2)C(=O)N1 (stereo not drawn) [cis-DJIR] | 40 | equipotent to the structurally similar trans-6bK and trans-6bA macrocycles; also recorded: at least as potent that 6bK
2 | NCCOCCNC(=O)C1Cc2ccccc2CNC(=O)CC(Cc2ccccc2)NC(=O)C(Cc2ccco2)NC(=O)CN2CCN(CC2)C(=O)C=CC(=O)N1 (stereo not drawn) [cis-CODVV] | 30000 | 
3 | CC1NC(=O)C=CC(=O)NC(C(=O)NCCOCCN)Cc2cccc(c2)CNC(=O)C(Cc2ccc(C(=O)c3ccccc3)cc2)NC(=O)C(CC2CCCCC2)NC1=O (stereo not drawn) [trans-DJPM] | 50 | equipotent to the structurally similar trans-6bK and trans-6bA macrocycles; also recorded: comparable in potency to our previously optimized 20-membered inhibitor 6bK; also recorded: equipotent to the previously optimized IDE inhibitor 6bK
